Each molecule was assayed against Arf6 (Homo sapiens (Human), UniProt P62330) (assay: Fluorometric assay for Arf6 nucleotide exchange catalyzed by ARNO Sec7 domain (GTP-BODIPY FL)). Details: 20 nM Arf6 assay; read-out: IC50 (μM) 20 nM Arf6.
Assay type: biochemical
Experimental: FIGS. 1A-1D: Fluorometric high throughput assay for Arf6 nucleotide exchange catalyzed by ARNO Sec7 domain. FIG. 1A: Principle of the assay. FIG. 1B: SDS-PAGE analysis of N-terminally His-tagged Arf6(14-175) and ARNO(50-255) purified from the E. coli cultures by immobilized metal affinity chromatography. FIG. 1C: Correlation between signal intensity and ARNO concentration. The assay was performed using 50 mM Tris-HCl, pH 7.5, 1 mM MgCl2, 0.01% TX-100, 1% DMSO, 50 nM GTP-BODIPY FL, supplemented with ARNO-Sec7 at indicated concentrations in the absence or in the presence of 0.2 μM Arf6-GDP. Fluorescence intensities were monitored using a Synergy 4 plate reader (BioTek) at the excitation and emission wavelengths of 490 nm and 520 nm, respectively. FIG. 1D: Time course of apparent inhibitory potency of GDP. The assay was performed in automated mode using a Matrix PlateMate liquid handler.
The primary biochemical assay uses a fluorometric assay for monitoring the replacement of bound nucleotide with a fluorogenic GTP derivative bearing a BODIPY FL moiety, allowing for the identification of compounds that can inhibit this exchange (see FIG. 1A). In certain embodiments, the methods disclosed herein may exploit the reduction of intramolecular fluorescence quenching of the modified nucleotide upon its binding to the target protein (see, e.g., McEwen D P, Gee K R, Kang H C, Neubig R R. Fluorescent BODIPY-GTP analogs: real-time measurement of nucleotide binding to G proteins. Anal Biochem. 2001 Apr. 1; 291(1): 109-17).
The fluorometric assay formatted for 96-well microtiter plates has passed quality control based on the following criteria: i) S/B ratio of 4-fold and Z′-factor of 0.61; ii) linear correlation between signal intensity and ARNO concentration (see FIG. 1C); iii) sufficiently reproducible inhibitory effects of the reference inhibitor GDP for assay durations up to at least 1 hour (see FIG. 1D); and iv) lack of apparent fluorescence quenchers among 400 randomly selected compounds. The assay is amenable to automation with a throughput of approximately 5,000 data points per 8 hours.

Chain of Arf6 (P62330 14-175): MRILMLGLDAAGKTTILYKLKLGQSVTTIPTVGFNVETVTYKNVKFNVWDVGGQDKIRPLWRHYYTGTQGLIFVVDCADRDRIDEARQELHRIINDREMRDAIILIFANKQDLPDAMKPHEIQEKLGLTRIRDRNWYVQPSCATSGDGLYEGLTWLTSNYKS

Point of comparison: `CC(C)(C)c1nn2c(=O)cc(-c3cccnc3)[nH]c2c1-c1ccc(Cl)cc1` [Compound 84], IC50 6.4 µM. Against it:
- CCC(=O)Nc1ccc(-c2cc(=O)n3nc(C(F)(F)F)c(-c4ccc(Cl)cc4)c3[nH]2)cc1 [Compound 16] — 6.4-fold lower, 1 µM
- O=C1NC(=S)S/C1=C/c1ccc(N2N=C(c3ccccc3)CC2c2ccccc2)cc1 (stereo not drawn) [Compound 121] — 1.7-fold lower, 3.7 µM
- Cc1nn2c(=O)cc(-c3ccc(NS(=O)(=O)Cc4ccccc4)cc3)[nH]c2c1-c1ccc(Cl)cc1 [Compound 68] — 1.7-fold lower, 3.8 µM
- CCC(C)(C)C1CCc2c(sc3c2C(=O)NC(c2cc(OC)c(O)c([N+](=O)[O-])c2)N3)C1 (stereo not drawn) [Compound 113] — 11-fold lower, 0.56 µM
- Cc1ccn2c(=O)cc(CSc3nc(C)cc(=O)[nH]3)nc2c1 [Compound 131] — 1.7-fold higher, 11 µM
- O=c1c(Cl)c(-c2ccccc2)[nH]c2c(-c3ccc(Cl)cc3)c(Cc3ccccc3)nn12 [Compound 49] — 2.6-fold lower, 2.5 µM
- Cc1c(Cc2ccccc2)nn2c(=O)cc(-c3ccc([N+](=O)[O-])cc3)[nH]c12 [Compound 98] — 1.7-fold higher, 11 µM
- O=c1cc(-c2ccc([N+](=O)[O-])cc2)[nH]c2c(-c3ccc(Cl)cc3)c(Cc3cccnc3)nn12 [Compound 52] — 2.3-fold lower, 2.8 µM
- O=c1nc(/C=C/c2ccc(-c3cc(Cl)cc(Cl)c3)o2)cc(C(F)(F)F)[nH]1 [Compound 120] — 1.9-fold lower, 3.4 µM
- COc1ccc(-c2cccc(-c3cc(=O)n4nc(C(F)(F)F)c(-c5ccc(Cl)cc5)c4[nH]3)c2)cn1 [Compound 31] — 4.3-fold lower, 1.5 µM
- N#Cc1c(=O)n(-c2ccc(Cl)cc2)nc2c(=O)n(N)c(-c3ccccc3Cl)cc12 [Compound 114] — 5.8-fold lower, 1.1 µM
- COC(=O)c1ccc(-c2cc(=O)n3nc(C4CC4)c(-c4ccc(Cl)cc4)c3[nH]2)cc1 [Compound 71] — 1.6-fold lower, 4.1 µM
- CC(C)(C)c1nn2c(=O)cc(-c3cccc(S(C)(=O)=O)c3)[nH]c2c1-c1ccc(Cl)cc1 [Compound 87] — within 1.5-fold, 6.7 µM
- O=c1c(Cl)c(-c2ccc([N+](=O)[O-])cc2)[nH]c2c(-c3ccc(Cl)cc3)c(Cc3ccccc3)nn12 [Compound 24, 2-benzyl-6-chloro-3-(4-chlorophenyl)-5-(4-nitrophenyl)-4H-pyrazolo[1,5-a]pyrimidin-7-one] — 4.9-fold lower, 1.3 µM
- N#Cc1ccc(-c2cc(=O)n3nc(C4CC4)c(-c4ccc(Cl)cc4)c3[nH]2)cc1 [Compound 58] — 2-fold lower, 3.2 µM
- O=c1cc(-c2ccc([N+](=O)[O-])cc2)[nH]c2c(-c3ccc(Cl)c(Cl)c3)c(C(F)(F)F)nn12 [Compound 7] — 9.7-fold lower, 0.66 µM
- Cc1nn2c(=O)cc(-c3ccc([N+](=O)[O-])cc3)[nH]c2c1-c1cccc2ccccc12 [Compound 51] — 2.4-fold lower, 2.7 µM
- Cc1nn2c(=O)cc(-c3ccc([N+](=O)[O-])cc3)[nH]c2c1-c1ccc(Cl)cc1 [Compound 39] — 3.4-fold lower, 1.9 µM
- CC(c1ccccc1)c1cc(=O)n2nc(C(F)(F)F)c(-c3ccc(Cl)cc3)c2[nH]1 (stereo not drawn) [Compound 45] — 2.8-fold lower, 2.3 µM
- O=c1cc(-c2cccc(Br)c2)[nH]c2c(-c3ccc(Cl)cc3)c(C(F)(F)F)nn12 [Compound 34] — 4-fold lower, 1.6 µM

Same assay, conditions: 200 nM Arf6 assay; read-out: IC50 (μM) 200 nM Arf6

Point of comparison: `O=c1cc(-c2ccc([N+](=O)[O-])cc2)[nH]c2c(-c3ccc(Cl)cc3)c(Cc3cccnc3)nn12` [Compound 52], IC50 4.8 µM. Against it:
- O=c1cc(-c2ccc([N+](=O)[O-])cc2)[nH]c2c(-c3ccc(Cl)cc3)cnn12 [Compound 60] — within 1.5-fold, 3.2 µM
- O=C1c2ccccc2C(=O)C1C1=NC2c3ccccc3OC2S1 (stereo not drawn) [Compound 141] — 6.5-fold higher, 31 µM
- O=C(O)c1ccc(C2Nc3c(Br)cccc3C3C=CCC32)cc1 (stereo not drawn) [Compound 127] — 1.7-fold higher, 8 µM
- CC(C)(C)c1ccc(S(=O)(=O)Nc2ccc(O)c3ccccc23)cc1 [Compound 126] — within 1.5-fold, 6.7 µM
- O=c1c(Cl)c(-c2ccc([N+](=O)[O-])cc2)[nH]c2c(-c3ccc(Cl)cc3)c(Cc3ccccc3)nn12 [Compound 24, 2-benzyl-6-chloro-3-(4-chlorophenyl)-5-(4-nitrophenyl)-4H-pyrazolo[1,5-a]pyrimidin-7-one] — 3.4-fold lower, 1.4 µM
- O=c1cc(Cc2ccccc2)[nH]c2c(-c3ccc(Cl)cc3)c(Cc3ccccc3)nn12 [Compound 99] — 2.3-fold higher, 11 µM
- N#Cc1c(SCc2cc(=O)[nH]c(=O)[nH]2)nc2c(c1-c1ccccc1)CC/C2=C\c1ccccc1 [Compound 117] — 3.2-fold lower, 1.5 µM
- Cc1nn2c(=O)cc(-c3ccc([N+](=O)[O-])cc3)[nH]c2c1-c1cccc2ccccc12 [Compound 51] — within 1.5-fold, 4.9 µM
- Cc1nn2c(=O)cc(-c3ccc([N+](=O)[O-])cc3)[nH]c2c1-c1ccc(Cl)cc1 [Compound 39] — within 1.5-fold, 4.7 µM
- O=c1cc(Cc2ccccc2)[nH]c2c(-c3ccccc3)c(-c3ccccc3)nn12 [Compound 89] — within 1.5-fold, 7 µM

Same assay, conditions: IC50 (μM) 200 nM Arf6, 200 nM Arf6 assay

`O=C1NC(=S)N(c2cccc(Cl)c2)C(=O)/C1=C/c1cccn1-c1ccc(Cl)cc1` [Compound 118] showed an IC50 of 1.8 µM.

— patent US10849901B2, “Arf6 inhibitors and methods of synthesis and use thereof” (Navigen, Inc., priority 2014, dated 2020)
